pIC50: −log10 of the molar value.
Tests used:
[1] = target: T1, human ABHD11 (Homo sapiens, UniProt Q8NFV4); assay: ABHD11 colorimetric assay with p-nitrophenyl butyrate; assay type: biochemical; conditions: 10 µM compound, 500 µM p-NPB
T1 construct: residues V34—V315 of human ABHD11; His6-TEV site (N); made in house; host or cells: E. coli
T1 sequence (Q8NFV4 25-306 limits assumed): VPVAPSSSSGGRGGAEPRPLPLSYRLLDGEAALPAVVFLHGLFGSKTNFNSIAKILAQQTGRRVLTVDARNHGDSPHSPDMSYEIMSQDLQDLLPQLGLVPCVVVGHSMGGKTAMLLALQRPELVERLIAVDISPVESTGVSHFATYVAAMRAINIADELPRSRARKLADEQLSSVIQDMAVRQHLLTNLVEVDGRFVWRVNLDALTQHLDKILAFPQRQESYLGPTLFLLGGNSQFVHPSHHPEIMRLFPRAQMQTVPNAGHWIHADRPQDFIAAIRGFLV
Procedure: (§1) Enzymatic activities of ABHD10 and ABHD11 were measured in a colorimetric assay using p-nitrophenyl butyrate (p-NPB) as substrate. Enzymes at 1500 nM ABHD10 and 125 nM ABHD11 in 20 mM HEPES pH 7.5, 150 mM NaCl, and 2% (v/v) DMSO were pre-incubated in 96-well plates with 50 µM test compound for 30 min at 4°C. Plates were then equilibrated at 37°C for 2 min, and reactions were initiated by adding 160 µl of pre-warmed substrate solution (same buffer with 625 µM p-NPB) to a total volume of 200 µl, yielding final assay concentrations of 300 nM ABHD10, 25 nM ABHD11, and 500 µM pNPB. The substrate solution was prepared immediately before addition to the enzyme mixtures. Absorbance at 405 nm was recorded on a SpectraMax iD3 plate reader (Molecular Devices) for 20 min with continuous monitoring at 30 s intervals.

[2] = target: T2, human ABHD10 (Homo sapiens, UniProt Q9NUJ1); assay: ABHD10 colorimetric assay with p-nitrophenyl butyrate; assay type: biochemical; conditions: 10 µM compound, 500 µM p-NPB
T2 construct: Constructs encoding amino acids T53—N306 of human ABHD10; His6-TEV site (N); made in house; host or cells: E. coli
T2 sequence (Q9NUJ1 53-306): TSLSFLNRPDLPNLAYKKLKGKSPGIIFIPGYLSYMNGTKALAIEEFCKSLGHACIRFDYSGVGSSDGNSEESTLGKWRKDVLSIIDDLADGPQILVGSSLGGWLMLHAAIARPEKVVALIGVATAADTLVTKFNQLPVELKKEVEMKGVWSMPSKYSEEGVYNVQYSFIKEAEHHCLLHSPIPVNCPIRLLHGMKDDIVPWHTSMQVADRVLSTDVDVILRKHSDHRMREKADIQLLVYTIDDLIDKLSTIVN
Procedure: as §1

[3] = target: T3, ABHD2^L33–E425 (Homo sapiens, UniProt P08910); assay: ABHD2^L33-E425 fluorometric enzymatic activity assay with 7-HCA substrate; assay type: biochemical; conditions: 10 nM enzyme, 10 µM 7-HCA; read-out: IC50 for ABHD2^L33-425, fluorometric assay using 7-HCA
T3 construct: expression for ABHD2 amino acids L33–E425, in which a predicted transmembrane domain (amino acids 1–32) is removed; His6-FLAG (N); made in house; host or cells: E. coli BL21(DE3)-R3-pRARE2
T3 sequence (P08910 33-425): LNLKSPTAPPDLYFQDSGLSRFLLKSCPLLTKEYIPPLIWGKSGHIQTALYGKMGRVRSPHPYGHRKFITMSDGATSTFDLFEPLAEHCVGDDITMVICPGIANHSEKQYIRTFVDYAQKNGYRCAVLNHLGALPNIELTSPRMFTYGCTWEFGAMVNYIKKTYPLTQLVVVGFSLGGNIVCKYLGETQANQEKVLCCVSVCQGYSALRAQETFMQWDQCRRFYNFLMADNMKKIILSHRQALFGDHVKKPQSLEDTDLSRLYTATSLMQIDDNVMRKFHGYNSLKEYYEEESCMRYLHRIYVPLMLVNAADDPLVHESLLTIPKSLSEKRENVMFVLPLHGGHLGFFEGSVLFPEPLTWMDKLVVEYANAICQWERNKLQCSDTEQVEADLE

[4] = tested on: human sperm; assay: Sperm intracellular Ca2+ measurements (Fluo-4); assay type: cell-based
Procedure: Measurements of the changes in sperm intracellular Ca^2+ concentration ([Ca^2+]i) were performed on motile human sperm purified by swim-up. Semen samples were allowed to liquefy for 15–60 min at 37°C, and 0.5–1 ml liquified semen was layered beneath 4 ml human tubal fluid medium (HTF; 97.8 mM NaCl, 4.69 mM KCl, 0.2 mM MgSO4, 0.37 mM KH2PO4, 2.04 mM CaCl2, 2.78 mM glucose, 0.33 mM sodium pyruvate, 21.4 mM lactic acid, 4 mM NaHCO3, and 21 mM HEPES pH 7.35 adjusted with NaOH) in 50 ml conical tubes. Motile sperm were allowed to swim up into the HTF for 60–90 min at 37°C, collected, washed twice (700 × g, 20 min, 37°C), and resuspended in HTF containing 3 mg/ml HSA at a density of 1 × 10^7 sperm/ml. Changes of [Ca^2+]i in motile human sperm were measured as previously described ([Rennhack et al., 2018]), using a fluorescence plate-reader assay (FLUOstar Omega, BMG LABTECH) with 384-well plates. Swim-up-purified sperm were loaded with Fluo4-AM (5 μM, Thermo Fisher Scientific, Waltham, MA, USA) and Pluronic F-127 (0.05% w/v) for 20 min at 37°C. Excess dye was removed by centrifugation at 700 × g for 5 min, supernatant removal, and resuspension to 5 × 10^6 sperm/ml in HTF.
For recordings, wells of a 384-well plate were filled with 50 μl of the dye-loaded sperm suspension. Fluorescence was excited at 480 nm, and emission was recorded at 520 nm using a plate reader (Fluostar Omega, BMG Labtech). After establishing a baseline for at least 60 s, 25 µl test compound solutions were added and the fluorescence response recorded. After 4 min, 7.5 µl progesterone was added to reach a final concentration of 3 µM, and ensuing changes in fluorescence were recorded. For the analysis of compound-evoked Ca^2+ signal, basal fluorescence (F0) was determined prior to compound addition. For the determination of inhibitory effects of compounds on progesterone-evoked Ca^2+ signals, basal fluorescence (F0) was determined before progesterone addition. The CatSper inhibitor TS150 ([Schierling et al., 2023]) was used as a control. Each compound was tested in technical duplicates across ≥3 biological replicates, using sperm from at least two donors, and performed on at least two separate days.
Data analysis and graphical representation were performed with GraphPad Prism software version 10.6.1 (San Diego, CA, USA). Changes in Fluo-4 fluorescence are depicted as ΔF/F0 (%), i.e. the change in fluorescence (ΔF) relative to the mean basal fluorescence (F0) before application of buffer or compounds/ligands, to correct for intra- and inter-experimental variations in basal fluorescence among individual wells or to correct for compound-evoked changes in fluorescence. Signal amplitudes evoked in the presence of compounds were normalized to the maximal signal amplitude evoked by 3 µM progesterone in the absence of the compound (set to 1) to ease comparisons between experiments.

CC1CCCN(C(=O)c2ccccc2C(=O)c2ccccc2)C1 (centres unmarked) [Compound 4]
inhibition of ABHD11 [1]: no detectable inhibition | inhibition of ABHD10 [2]: no detectable inhibition | pIC50 [3]: 6.44 | compound-evoked changes in [Ca2+]i ([4]; 10 µM compound): only minuscule changes | effect on progesterone-induced Ca2+ signal (amplitude and waveform) ([4]; compounds 10 µM, TS150 60 µM, progesterone 3 µM): similar
